Measured values as given in the NIST ThermoML archive (doi:10.1016/j.jct.2018.01.019).

Assay: molar heat capacity at constant pressure
Details: 101.33 kPa, Crystal 2, Small sample (50 mg) DSC

O=[Si]=O [silicon dioxide]
Details	molar heat capacity at constant pressure [J/K/mol]
730 K	69.83
735 K	70
740 K	70.22
745 K	70.45
750 K	70.72
755 K	71
760 K	71.26
780.95 K	71.65
781.12 K	71.67
781.28 K	71.59
781.45 K	71.55
781.61 K	71.6
781.78 K	71.49
781.94 K	71.36
782.11 K	71.45
782.28 K	71.45
782.45 K	71.54
782.62 K	71.57
782.78 K	71.51
782.95 K	71.6
783.12 K	71.5
783.28 K	71.3
783.45 K	71.26
783.62 K	71.08
783.78 K	71.24
783.95 K	71.41
784.12 K	71.45
784.28 K	71.52
784.45 K	71.54
784.62 K	71.49
784.78 K	71.52
784.95 K	71.46
785.12 K	71.45
785.28 K	71.49
785.45 K	71.49
785.62 K	71.49
785.79 K	71.54
785.95 K	71.6
786.12 K	71.72
786.29 K	71.77
786.45 K	71.65
786.62 K	71.5
786.78 K	71.36
786.95 K	71.21
787.12 K	71.35
787.29 K	71.46
787.46 K	71.52
787.62 K	71.51
787.78 K	71.6
787.95 K	71.68
788.12 K	71.69
788.28 K	71.59
788.45 K	71.56
788.62 K	71.65
788.79 K	71.81
788.95 K	71.75
789.12 K	71.7
789.29 K	71.78
789.45 K	71.82
789.62 K	71.7
789.79 K	71.66
789.95 K	71.68
790.12 K	71.65
790.28 K	71.4
790.45 K	71.28
790.62 K	71.32
790.78 K	71.49
790.95 K	71.6
791.12 K	71.65
791.29 K	71.82
791.45 K	71.83
791.62 K	71.77
791.79 K	71.7
791.95 K	71.64
792.12 K	71.58
792.29 K	71.65
792.45 K	71.69
792.61 K	71.77
792.78 K	71.83
792.95 K	71.78
793.12 K	71.69
793.28 K	71.67
793.45 K	71.75
793.61 K	71.63
793.78 K	71.65
793.95 K	71.8
794.12 K	71.75
794.29 K	71.74
794.45 K	71.73
